Test results taken from patent US4337199A, “Antibiotic β-lactam compounds, production thereof, and their use as antimicrobial agent” (Sanraku-Ocean Co., Ltd., priority 1978, dated 1982).
≈ marks a conversion by molar mass, not a printed value.

Legend:
[1] = system: Citrobacter freundii GN 346; test: minimum inhibitory concentration, agar dilution assay; assay type: cell-based; details: GN346, agar dilution, 35° C., 20 hours, read-out: minimum inhibitory concentration
Procedure, shortened: (§1)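 Two-fold dilutions of compound in sterile water were mixed into molten brain heart infusion agar at about 60 °C. Plates were inoculated with Trypto-Soy broth cultures (35 °C, 18–20 h) diluted to approximately 10^8 cells/ml. After 20 h at 35 °C, MIC was taken as the lowest concentration showing no growth.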

Enterobacter sp. E8 = test: as above; assay type: cell-based; details: SP.E8, agar dilution, 35° C., 20 hours, read-out: minimum inhibitory concentration
Procedure, shortened: as §1

Serratia marcescens S18 = test: as above; assay type: cell-based; details: S18, agar dilution, 35° C., 20 hours, read-out: minimum inhibitory concentration
Procedure, shortened: as §1

[2] = system: Staphylococcus aureus FDA 209P; test: as above; assay type: cell-based; details: FDA209P, agar dilution, 35° C., 20 hours, read-out: minimum inhibitory concentration
Procedure, shortened: as §1

Escherichia coli RGN 823 = test: as above; assay type: cell-based; details: RGN823, agar dilution, 35° C., 20 hours, read-out: minimum inhibitory concentration
Procedure, shortened: as §1

Proteus sp. P22 = test: as above; assay type: cell-based; details: agar dilution, 35° C., 20 hours; read-out: minimum inhibitory concentration
Procedure, shortened: as §1

Serratia marcescens T55 = test: as above; assay type: cell-based; details: T55, agar dilution, 35° C., 20 hours, read-out: minimum inhibitory concentration
Procedure, shortened: as §1

Enterobacter cloacae 45 = test: as above; assay type: cell-based; details: Enterobacter cloacae, 45; agar dilution, 35° C., 20 hours; read-out: minimum inhibitory concentration
Procedure, shortened: as §1

[3] = system: Bacillus subtilis ATCC 6633; test: as above; assay type: cell-based; details: ATCC6633, agar dilution, 35° C., 20 hours, read-out: minimum inhibitory concentration
Procedure, shortened: as §1

[4] = system: Pseudomonas aeruginosa IFO3445; test: as above; assay type: cell-based; details: IFO3445, agar dilution, 35° C., 20 hours, read-out: minimum inhibitory concentration
Procedure, shortened: as §1

[5] = system: Klebsiella pneumoniae K-13; test: as above; assay type: cell-based; details: K13, agar dilution, 35° C., 20 hours, read-out: minimum inhibitory concentration
Procedure, shortened: as §1

[6] = system: Comamonas terrigena B-996; test: as above; assay type: cell-based; details: B996, agar dilution, 35° C., 20 hours, read-out: minimum inhibitory concentration
Procedure, shortened: as §1

[7] = system: Staphylococcus epidermidis; test: as above; assay type: cell-based; details: agar dilution, 35° C., 20 hours, read-out: minimum inhibitory concentration
Procedure, shortened: as §1

[8] = system: Enterobacter aerogenes E19; test: as above; assay type: cell-based; details: Klebsiella aerogenes, E19; agar dilution, 35° C., 20 hours; read-out: minimum inhibitory concentration
Procedure, shortened: as §1

[9] = system: Pseudomonas aeruginosa NCTC10490; test: as above; assay type: cell-based; details: NCTC10490, agar dilution, 35° C., 20 hours, read-out: minimum inhibitory concentration
Procedure, shortened: as §1

Proteus vulgaris GN76 = test: as above; assay type: cell-based; details: GN76, agar dilution, 35° C., 20 hours, read-out: minimum inhibitory concentration
Procedure, shortened: as §1

Sarcina lutea = test: as above; assay type: cell-based; details: Micrococcus luteus; agar dilution, 35° C., 20 hours; read-out: minimum inhibitory concentration
Procedure, shortened: as §1

Escherichia coli K-12 = test: as above; assay type: cell-based; details: K12, agar dilution, 35° C., 20 hours, read-out: minimum inhibitory concentration
Procedure, shortened: as §1

Alcaligenes faecalis A 1 = test: as above; assay type: cell-based; details: A1, agar dilution, 35° C., 20 hours, read-out: minimum inhibitory concentration
Procedure, shortened: as §1

[10] = system: Staphylococcus aureus Smith; test: as above; assay type: cell-based; details: agar dilution, 35° C., 20 hours, read-out: minimum inhibitory concentration
Procedure, shortened: as §1

Proteus rettgeri P7 = test: as above; assay type: cell-based; details: Providencia rettgeri, P7; agar dilution, 35° C., 20 hours; read-out: minimum inhibitory concentration
Procedure, shortened: as §1

[11] = system: Staphylococcus aureus Russell; test: as above; assay type: cell-based; details: agar dilution, 35° C., 20 hours, read-out: minimum inhibitory concentration
Procedure, shortened: as §1

Proteus mirabilis P6 = test: as above; assay type: cell-based; details: P6, agar dilution, 35° C., 20 hours, read-out: minimum inhibitory concentration
Procedure, shortened: as §1

Providencia sp. P8 = test: as above; assay type: cell-based; details: SP.P8, agar dilution, 35° C., 20 hours, read-out: minimum inhibitory concentration
Procedure, shortened: as §1

[12] = system: Staphylococcus aureus Smith strain; test: Infection treating test; assay type: in vivo, Staphylococcus aureus (in ddy male mice); details: sc, 2 h, mice infected intraperitoneally, 5×10^5 cells per mouse, subcutaneous, two hours after infection, read-out: CD50 (the source's name)
Description: The in vivo activities of the compounds of formula (I-d) were determined by using mice (five per group, ddy male mice, Shizuoka) which had been intraperitoneally infected with Staphylococcus aureus Smith strain in an amount of 5×10^5 cells per mouse. Two hours after the infection, an injection containing a sodium salt of each of the compounds of formula (I-d) was subcutaneously administered to the mice.

Row | Compound | MIC [1] [µg/mL] | MIC (Enterobacter sp. E8) [µg/mL] | MIC (Serratia marcescens S18) [µg/mL] | MIC [2] [µg/mL] | MIC (Escherichia coli RGN 823) [µg/mL] | MIC (Proteus sp. P22) [µg/mL] | MIC (Serratia marcescens T55) [µg/mL] | MIC (Enterobacter cloacae 45) [µg/mL] | MIC [3] [µg/mL] | MIC [4] [µg/mL] | MIC [5] [µg/mL] | MIC [6] [µg/mL] | MIC [7] [µg/mL] | MIC [8] [µg/mL] | MIC [9] [µg/mL] | MIC (Proteus vulgaris GN76) [µg/mL] | MIC (Sarcina lutea) [µg/mL] | MIC (Escherichia coli K-12) [µg/mL] | MIC (Alcaligenes faecalis A 1) [µg/mL] | MIC [10] [µg/mL] | further results
1 | CC(O)C1C(=O)N2C(C(=O)O)=C(Sc3ncccn3)CC12 (stereo not drawn) [Example 64, 5,6-cis-3-(2-Pyrimidinylthio)-6-(1-hydroxyethyl)-7-oxo-1-azabicyclo[3.2.0]hept-2-ene-2-carboxylic acid] | 6.25 (≈ 20.3 µM) | 0.013 (≈ 0.0423 µM) | 12.5 (≈ 40.7 µM) | < 0.007 | 1.56 (≈ 5.08 µM) | 25 (≈ 81.3 µM) | 12.5 (≈ 40.7 µM) | 12.5 (≈ 40.7 µM) | < 0.007 | 25 (≈ 81.3 µM) | 25 (≈ 81.3 µM) | < 0.007 | 0.025 (≈ 0.0813 µM) | 3.13 (≈ 10.2 µM) | 25 (≈ 81.3 µM) | 6.25 (≈ 20.3 µM) | < 0.007 | 0.1 (≈ 0.325 µM) | 0.05 (≈ 0.163 µM) | 0.025 (≈ 0.0813 µM) | MIC (Proteus rettgeri P7): 1.56 µg/mL (≈ 5.08 µM); MIC [11]: 0.013 µg/mL (≈ 0.0423 µM); MIC (Proteus mirabilis P6): 0.78 µg/mL (≈ 2.54 µM); MIC (Providencia sp. P8): 0.2 µg/mL (≈ 0.651 µM); ED50 [12]: 0.25 mg/kg
2 | CC(C)C1C(=O)N2C(C(=O)O)=C(SC3CCCCC3)CC12 (stereo not shown) | > 100 | > 100 | > 100 | 0.025 (≈ 0.0808 µM) | > 100 | 100 (≈ 323 µM) | > 100 | > 100 | 0.2 (≈ 0.646 µM) | > 100 | > 100 | 0.007 (≈ 0.0226 µM) | 0.05 (≈ 0.162 µM) | > 100 | 50 (≈ 162 µM) | > 100 | 0.025 (≈ 0.0808 µM) | > 100 | 6.25 (≈ 20.2 µM) | 0.05 (≈ 0.162 µM) | MIC (Proteus rettgeri P7): > 100 µg/mL; MIC [11]: 0.025 µg/mL (≈ 0.0808 µM); MIC (Proteus mirabilis P6): 100 µg/mL (≈ 323 µM); MIC (Providencia sp. P8): > 100 µg/mL
3 | CC(O)[C@H]1C(=O)N2C(C(=O)O)=C(Sc3ccccc3)C[C@H]12 (stereo partly shown) | > 100 | 100 (≈ 327 µM) | > 100 | 0.05 (≈ 0.164 µM) | 50 (≈ 164 µM) | > 100 | > 100 | > 100 | 6.25 (≈ 20.5 µM) | 25 (≈ 81.9 µM) | > 100 | 0.05 (≈ 0.164 µM) | 0.39 (≈ 1.28 µM) | > 100 | 6.25 (≈ 20.5 µM) | > 100 | 0.05 (≈ 0.164 µM) | 50 (≈ 164 µM) | 25 (≈ 81.9 µM) | 1.56 (≈ 5.11 µM) | MIC (Proteus rettgeri P7): > 100 µg/mL; MIC [11]: 0.78 µg/mL (≈ 2.55 µM); MIC (Proteus mirabilis P6): 100 µg/mL (≈ 327 µM); MIC (Providencia sp. P8): 50 µg/mL (≈ 164 µM)
4 | CC(O)C1C(=O)N2C(C(=O)O)=C(Sc3ccccn3)CC12 (stereo not shown) | 6.25 (≈ 20.4 µM) | 0.78 (≈ 2.55 µM) | 12.5 (≈ 40.8 µM) | < 0.007 | 3.13 (≈ 10.2 µM) | 12.5 (≈ 40.8 µM) | 25 (≈ 81.6 µM) | 12.5 (≈ 40.8 µM) | < 0.007 | 12.5 (≈ 40.8 µM) | 25 (≈ 81.6 µM) | < 0.007 | 0.05 (≈ 0.163 µM) | 6.25 (≈ 20.4 µM) | 50 (≈ 163 µM) | 12.5 (≈ 40.8 µM) | < 0.007 | 0.39 (≈ 1.27 µM) | 6.25 (≈ 20.4 µM) | 0.013 (≈ 0.0424 µM) | MIC (Proteus rettgeri P7): 3.13 µg/mL (≈ 10.2 µM); MIC [11]: 0.013 µg/mL (≈ 0.0424 µM); MIC (Proteus mirabilis P6): 0.39 µg/mL (≈ 1.27 µM); MIC (Providencia sp. P8): 0.2 µg/mL (≈ 0.653 µM)
